Data published in patent US11617762B2, “Compositions comprising sulfated polysaccharides” (SEANERGY DERMATOLOGY LTD., priority 2016, dated 2023).

Tests used:
[1] = test system: TNFα secretion in RAW 264.7 cells; test: LPS-induced TNFα secretion by RAW 264.7 macrophage cells (ELISA); assay type: cell-based; details: LPS 1 μg/ml, 24 hr
Procedure: The potential for synergistic interaction was tested by assaying inflammatory mediator secretion by a macrophage cell line (RAW 264.7), following stimulation with lipopolysaccharide (LPS). […] RAW 264.7 monocyte macrophage cells (approximately 4×10^5/ml) were seeded in 24 well plates containing 800 microliters/well of complete growth medium (DMEM containing 2 mM glutamine, 100 U/ml penicillin and 100 μg/ml streptomycin and 10% fetal bovine serum). The cells were then incubated at 37 degrees Celsius with 5% carbon dioxide for 24 h. At the end of this period, growth medium supplemented with 1 μg/ml lipopolysaccharide (LPS) was added to the cells, together with the test substances (SPS, anti-inflammatory drugs and their combinations) and various controls), and the cells were then incubated for a further 24 hr. period under the same conditions as before. Following this incubation period, the conditioned medium was aspirated from the various test and control wells and centrifuged at 14,000 g for 5 minutes to remove particulate matter. The clear supernatants were then stored at −70 degrees Celsius prior to assaying the inflammatory mediatory content therein. The cytokine/mediator content in the thawed supernatants was assayed using standard ELISA kits for TNFα, IL-6 and PGE2 (BioLegend Inc., San Diego, Calif., USA). Method: Raw 264.7 macrophage cells were incubated (as described above) in the absence or presence of LPS and treated without or with the SPS (Porphyridium C. SPS), Dexamethasone or a combination thereof for 24 hr. Then, TNFα levels in the spent medium were quantified by ELISA, as explained above. DMSO were used as vehicle. Methods: Hydrocortisone, Mometasone furoate and Porphyridium SPS were tested alone and in combination, according to the methods described hereinabove, in order to assess the effect of these various treatments on TNFα secretion in RAW 264.7 cells. Methods: Dexamethasone alone, SPS obtained from brown algae and green algae alone, and combinations of dexamethasone with the SPS, were tested, as described hereinabove, in order to assess the effect of these various treatments on TNFα secretion in RAW 264.7 cells.

[2] = test system: PGE2 secretion in RAW 264.7 cells; test: LPS-induced prostaglandin E2 secretion by RAW 264.7 macrophage cells (ELISA); assay type: cell-based
Procedure: The potential for synergistic interaction was tested by assaying inflammatory mediator secretion by a macrophage cell line (RAW 264.7), following stimulation with lipopolysaccharide (LPS). The inflammatory mediators assayed were: tumor necrosis factor—alpha (TNF-alpha), interleukin 6 (IL-6) and prostaglandin E2 (PGE2). RAW 264.7 monocyte macrophage cells (approximately 4×10^5/ml) were seeded in 24 well plates containing 800 microliters/well of complete growth medium (DMEM containing 2 mM glutamine, 100 U/ml penicillin and 100 μg/ml streptomycin and 10% fetal bovine serum). The cells were then incubated at 37 degrees Celsius with 5% carbon dioxide for 24 h. At the end of this period, growth medium supplemented with 1 μg/ml lipopolysaccharide (LPS) was added to the cells, together with the test substances (SPS, anti-inflammatory drugs and their combinations) and various controls), and the cells were then incubated for a further 24 hr. period under the same conditions as before. Following this incubation period, the conditioned medium was aspirated from the various test and control wells and centrifuged at 14,000 g for 5 minutes to remove particulate matter. The clear supernatants were then stored at −70 degrees Celsius prior to assaying the inflammatory mediatory content therein. The cytokine/mediator content in the thawed supernatants was assayed using standard ELISA kits for TNFα, IL-6 and PGE2 (BioLegend Inc., San Diego, Calif., USA). […] SPS was also investigated on Prostaglandin E2 (PGE2) secretion, as an independent inflammation marker derived from arachidonic acid metabolism. Raw 264.7 macrophage cells were incubated (as described above) in the absence or presence of LPS and treated without or with the SPS (Porphyridium C. SPS), Indomethacin or a combination thereof for 24 hr. Then, PGE2 levels in the supernatant medium were quantified by ELISA, as explained above. DMSO were used as vehicle. […]

## C[C@@H]1C[C@H]2[C@@H]3CCC4=CC(=O)C=C[C@]4(C)[C@@]3(F)[C@@H](O)C[C@]2(C)[C@@]1(O)C(=O)CO [Dexamethasone]
[1]; Mus musculus, RAW264.7, Table 2, TNFα, 1.0 μM alone
  inhibition at 1 µM: 34%
[1]; Table 2, 1.0 μM alone
  TNFα concentration (ng/ml): 7,400 ng/ml

## O=C(O)Cc1ccccc1Nc1c(Cl)cccc1Cl [Diclofenac]
[2]; Mus musculus, RAW264.7, Table 3, PGE2, 0.1 μM alone, LPS 1 μg/ml, 24 hr
  inhibition at 0.1 µM: 7.5%
[2]; Table 3, 0.1 μM alone, LPS 1 μg/ml, 24 hr
  PGE2: 3,700

## C[C@]12CCC(=O)C=C1CC[C@@H]1[C@@H]2[C@@H](O)C[C@@]2(C)[C@H]1CC[C@]2(O)C(=O)CO [Hydrocortisone]
[1]; Mus musculus, RAW264.7, Table 1, TNFα, 5.0 μM alone, read-out: % inhibition (mean; n = 3)
  inhibition at 5 µM: 27%
[1]; Table 1, 5.0 μM alone
  TNFα concentration (ng/ml): 8,200 ng/ml

## C[C@@H]1C[C@H]2[C@@H]3CCC4=CC(=O)C=C[C@]4(C)[C@@]3(Cl)[C@@H](O)C[C@]2(C)[C@@]1(OC(=O)c1ccco1)C(=O)CCl [Mometasone furoate]
[1]; Mus musculus, RAW264.7, Table 1, TNFα, 0.5 μM alone, read-out: % inhibition (mean; n = 3)
  inhibition at 0.5 µM: 32%
[1]; Table 1, 0.5 μM alone
  TNFα concentration (ng/ml): 7,600 ng/ml

## COc1ccc2c(c1)c(CC(=O)O)c(C)n2C(=O)c1ccc(Cl)cc1 [indomethacin, Indomethacin]
[2]; Example 3, FIG. 3, used alone
  effect on LPS-stimulated Prostaglandin E2 secretion (in words): inhibited LPS-stimulated Prostaglandin E2 secretion to a certain degree, although this effect was not statistically significant
